# Assay results from patent publication US5187165A, “Memory enhancing and analgesic 1,2,3a,8,8a-hexahydro-3a,8(and 1,3a,8)-di(and tri)methylpyrrolo[2,3-b]indoles” (priority 1988, dated 1993).
# Tests used:
# [1] = test system: scopolamine-induced memory deficit; experiment: Dark Avoidance Assay (scopolamine induced memory deficit reversal); assay type: in vivo, mice; settings: Mus musculus, sc; mice, 0.31 mg/kg s.c., 24 h; read-out: % of Animals with Scopolamine Induced Memory Deficit Reversal
# Experimental: In this assay mice are tested for their ability to remember an unpleasant stimulus for a period of 24 hours. A mouse is placed in a chamber that contains a dark compartment; a strong incandescent light drives it to the dark compartment, where an electric shock is administered through metal plates on the floor. The animal is removed from the testing apparatus and tested again, 24 hours later, for the ability to remember the electric shock.
# If scopolamine, an anticholinergic that is known to cause memory impairment, is administered before an animal's initial exposure to the test chamber, the animal re-enters the dark compartment shortly after being placed in the test chamber 24 hours later. This effect of scopolamine is blocked by an active test compound, resulting in a greater interval before re-entry into the dark compartment.
# The results for an active compound are expressed as the percent of a group of animals in which the effect of scopolamine is blocked, as manifested by an increased interval between being placed in the test chamber and re-entering the dark compartment.
# [2] = biological target: T1, acetylcholinesterase (Brain AChE) (Rattus norvegicus, UniProt P37136); settings: background statement; brain vs serum AChE; cited from earlier work
# T1 construct: corpora striata dissected free, weighed and homogenized in 19 volumes; from tissue; host or cells: corpora striata of male Wistar rats, crude homogenate in phosphate buffer
# T1 sequence (P37136 32-614): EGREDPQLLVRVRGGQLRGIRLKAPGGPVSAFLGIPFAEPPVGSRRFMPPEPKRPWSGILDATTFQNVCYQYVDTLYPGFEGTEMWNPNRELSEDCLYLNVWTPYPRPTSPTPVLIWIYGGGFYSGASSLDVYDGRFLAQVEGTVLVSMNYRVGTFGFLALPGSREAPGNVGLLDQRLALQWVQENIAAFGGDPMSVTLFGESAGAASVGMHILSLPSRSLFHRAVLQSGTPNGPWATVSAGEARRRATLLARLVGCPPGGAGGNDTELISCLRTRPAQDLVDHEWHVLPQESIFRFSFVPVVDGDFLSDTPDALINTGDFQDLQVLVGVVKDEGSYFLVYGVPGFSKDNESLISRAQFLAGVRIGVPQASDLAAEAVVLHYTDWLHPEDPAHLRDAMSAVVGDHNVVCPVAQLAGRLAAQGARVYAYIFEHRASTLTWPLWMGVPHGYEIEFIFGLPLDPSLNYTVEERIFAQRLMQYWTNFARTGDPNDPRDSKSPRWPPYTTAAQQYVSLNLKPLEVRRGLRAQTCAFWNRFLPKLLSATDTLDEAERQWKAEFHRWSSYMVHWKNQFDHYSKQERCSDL
# [3] = Acute toxicity (LD50); assay type: in vivo; settings: in vivo, ip, death within 24 hours
# Experimental: LD50 is determined by the dose (mg/kg) at which 50% of the test animals die within 24 hours. In many cases this dose is an approximation.
# [4] = test system: norepinephrine uptake; assay type: biochemical; settings: rat brain synaptosomes, 50 nM 3H-NE, 37° C., 5 min; read-out: Reuptake Inhibition of neurotransmitters, Norepinephrine
structure (smiles),measurement,setting,value
"CNC(=O)Oc1ccc2c(c1)[C@]1(C)CCN(C)[C@@H]1N2C [Physostigmine, (3aS-cis)-1,2,3,3a,8,8a-hexahydro-1,3a,8-trimethylpyrrolo[2,3-b]indol-5-ol, methyl carbamate ester, reference compound]",responders at 0.31 mg/kg,[1],20%
same,specificity of AChE inhibition,[2],an unspecific AChE inhibitor
same,LD50 at 24 h,[3],~3 mg/kg
same,IC50,[4],> 20 µM
